Earlier results, collected in US7285553B2, “Serotonergic 5HT7 receptor compounds for treating ocular and CNS disorders” (Alcon Manufacturing, Ltd., priority 1998, dated 2007).
Like-named read-outs stand apart in the source and are kept apart here.

Assays:
rabbit eye = conditions: for IOP: rabbits; for intraocular pressure in the anterior chamber of the eye: topically applied to the rabbit eye
IOP [1] = tested on: IOP
IOP [2] = tested on: IOP; remark: listed apart in the source
IOP [3] = conditions: glaucomatous monkeys

CCCN(CCC)C1CCc2cccc(O)c2C1 (centres unmarked) [8-hydroxy DPAT]
IOP (rabbit eye): lower IOP

NCCc1c[nH]c2ccc(C(N)=O)cc12 [Example 5-CT, 5-carboxamidotryptamine]
intraocular pressure in the anterior chamber of the eye (rabbit eye): raise intraocular pressure

COc1cccc(CCc2ccccc2OCC(CN(C)C)OC(=O)CCC(=O)O)c1 (centres unmarked) [Saprogrelate]
IOP (rabbit eye; dosed topically or orally): lowers IOP
IOP (IOP [1]; man, dosed topically or orally): lowers IOP

NCCc1c[nH]c2ccc(O)cc12 [Example 5HT, 5-hydroxy tryptamine]
IOP (IOP [2]; intracamerally): raised IOP
blood-aqueous barrier (IOP [2]; intracamerally): caused breakdown of the blood-aqueous barrier
IOP (IOP [2]; topically applied): lowers IOP
intraocular pressure in the anterior chamber of the eye (rabbit eye): raise intraocular pressure

O=C(c1ccc(F)cc1)C1CCN(CCn2c(=O)[nH]c3ccccc3c2=O)CC1 [Ketanserin]
IOP (rabbit eye): lowers IOP
IOP (IOP [1]; man): lowers IOP

COc1ccccc1N1CCN(CCCNc2c(C)c(=O)n(C)c(=O)n2C)CC1 [5-methylurapidil]
IOP (IOP [3]): lowered IOP

CC[C@@H](CO)NC(=O)[C@@H]1C=C2c3cccc4c3c(cn4C)C[C@H]2N(C)C1 [Methysergide]
IOP (rabbit eye): lowered IOP

CNCCC(Oc1ccc(C(F)(F)F)cc1)c1ccccc1 (centres unmarked) [fluoxetine]
IOP (IOP [1]; human subjects, oral administration): raises IOP

c1ccc2c(c1)OC[C@H](CNCCCOc1ccc3c(c1)OCO3)O2 [MKC-242]
IOP (rabbit eye): lower IOP
